We go through 10 compounds from patent US20220324835A1 (Nurix Therapeutics, Inc., priority 2018, published 2022).

The structures appear in SMILES notation.

Experiment [1] deals with T1, Cbl-b (Homo sapiens, UniProt Q13191). The experiment can be described thus: Cbl-b inhibition assay (Cbl-b activity assay, FRET, Biological Example 1; 100 mM NaCl, 60 nM Src kinase). The format is biochemical. As to conditions: upper bound stated in text lists; read-out: IC50 values in the Cbl-b inhibition assay of Biological Example 1. The essentials: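 FRET read-out: loss of signal marks inhibition. Mix = biotin-Avi-Cbl-b (N-term), Src kinase, UbcH5B-Ub(Bodipy-FL, irreversible conjugate), streptavidin-Tb, assay buffer.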

In experiment [2] the test system is T-cell. The experiment can be described thus: IL-2 secretion from T-cells co-stimulated with anti-CD3 and anti-CD28 antibody (Biological Example 2). The experiment is classed as cell-based, human. As to conditions: Homo sapiens, T-cell, fold change over baseline, primary human total T-cells, read-out: IL-2 secretion Anti-CD3/Anti-CD28 stimulation; for fold induction at 0.3 µM: 0.3 μM Cbl-b inhibitor; for fold induction at 1 µM: 1 μM Cbl-b inhibitor; for fold induction at 4 µM: 4 μM Cbl-b inhibitor. The method in brief: (§1)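 T-cells were stimulated with anti-CD3 antibody alone or with anti-CD28 antibody, in the presence or absence of Cbl-b inhibitor. IL-2 secretion or CD25 surface staining was measured, and values expressed as fold over the uninhibited baseline […].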

The test system of experiment [3] is T-cell. Briefly: IL-2 secretion from T-cells stimulated with anti-CD3 antibody alone (Biological Example 2). The format is cell-based, human. As to conditions: T-cell, fold change over baseline, primary human total T-cells, read-out: IL-2 secretion Anti-CD3 stimulation; for fold induction at 1 µM: 1 μM Cbl-b inhibitor; for fold induction at 8 µM: 8 μM Cbl-b inhibitor.

Experiment [4] has as its system T-cell. Briefly: CD25 cell surface staining on T-cells co-stimulated with anti-CD3 and anti-CD28 antibody (Biological Example 2). The experiment is classed as cell-based, human. Particulars: Homo sapiens, T-cell, fold change over baseline, primary human total T-cells, read-out: CD25 staining Anti-CD3/Anti-CD28 stimulation; for fold induction at 0.3 µM: 0.3 μM Cbl-b inhibitor; for fold induction at 1 µM: 1 μM Cbl-b inhibitor; for fold induction at 4 µM: 4 μM Cbl-b inhibitor. The essentials: as §1

The test system of experiment [5] is T-cell. The experiment can be described thus: CD25 cell surface staining on T-cells stimulated with anti-CD3 antibody alone (Biological Example 2). The experiment is classed as cell-based, human. Particulars: T-cell, fold change over baseline, primary human total T-cells, read-out: CD25 staining Anti-CD3 stimulation; for fold induction at 1 µM: 1 μM Cbl-b inhibitor; for fold induction at 8 µM: 8 μM Cbl-b inhibitor.

In experiment [6] the target is T1, Cbl-b. Briefly: Cbl-b activity assay (Cbl-b inhibition assay), TR-FRET of Cbl-b interaction with UbcH5B-Ub. The experiment is classed as biochemical. As to conditions: assay buffer with 100 mM NaCl, 60 nM Src kinase; read-out: Cbl-b activity IC50. The essentials: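 UbcH5B (C85K) conjugated to N-terminally Bodipy-Fluorescein-labeled ubiquitin served as the fluorescent partner. After compound preincubation, Src kinase (60 nM) with 1 mM ATP and 5 mM MgCl2 (final) was added for 1.5 h, followed by a further 1 h incubation. Some values were obtained with 50 mM NaCl and 30 nM Src.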
On the technique in general: In TR-FRET formats the signal depends on donor and acceptor labels being close together.

T1 sequence (Q13191 36-427): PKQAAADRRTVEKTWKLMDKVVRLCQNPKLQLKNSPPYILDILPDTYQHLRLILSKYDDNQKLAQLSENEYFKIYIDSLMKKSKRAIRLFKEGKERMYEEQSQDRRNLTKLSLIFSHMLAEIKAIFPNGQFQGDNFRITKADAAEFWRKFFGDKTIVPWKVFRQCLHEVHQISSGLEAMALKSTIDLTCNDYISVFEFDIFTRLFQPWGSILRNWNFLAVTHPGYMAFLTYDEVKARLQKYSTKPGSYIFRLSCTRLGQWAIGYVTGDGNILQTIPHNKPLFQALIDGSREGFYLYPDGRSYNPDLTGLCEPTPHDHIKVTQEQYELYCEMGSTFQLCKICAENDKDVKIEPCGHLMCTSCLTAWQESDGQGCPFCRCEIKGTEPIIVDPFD

By IC50 is commonly meant the concentration at which inhibition is half-maximal. In the case of `Cc1cc(C(=O)Nc2cccc([C@H]3C[C@H]3c3nncn3C)c2)nc(C2CC2)n1` [Compound 333, 2-cyclopropyl-6-methyl-N-{3-[(1 S,2R)-2-(4-methyl-1,2,4-triazol-3-yl)cyclopropyl]phenyl}pyrimidine-4-carboxamide], the values for the IC50 at Cbl-b [1] and at Cbl-b [6] were no more than 300 nM and 100 to 300 nM, respectively. Besides, the fold induction at 0.3 µM lay within 1.01 to 2.5 with T-cell [2] and 1.01 to 1.3 in the experiment on T-cell [4]. Further, the fold induction at 1 µM with T-cell [2] lay within 2.51 to 5; in the experiment on T-cell [3], 0.101 to 0.15; in the experiment with T-cell [4], 1.01 to 1.3; in the experiment on T-cell [5], 0.801 to 1. Besides, the fold induction at 4 µM with T-cell [2] is 5 to 7.5; in the experiment on T-cell [4], 1.01 to 1.3. Moreover, the figures for the fold induction at 8 µM in the experiment on T-cell [3] and in the experiment on T-cell [5] were greater than 0.201 and greater than 1, respectively.

On to `Cc1cc(C(=O)Nc2cccc([C@H](C)Cc3nncs3)c2)nc(C2CC2)n1` [Compound 334, (R)-N-(3-(1-(1,3,4-thiadiazol-2-yl)propan-2-yl)phenyl)-2-cyclopropyl-6-methylpyrimidine-4-carboxamide], for which the IC50 on Cbl-b [1] was no more than 300 nM; on Cbl-b [6], 100 to 300 nM. For the same compound, the fold induction at 0.3 µM lay in the range of 1.01 to 2.5 in the experiment with T-cell [2] and 1.01 to 1.3 in the experiment with T-cell [4]. In addition, the fold induction at 1 µM in the experiment with T-cell [2] was 2.51 to 5; in the experiment with T-cell [3], 0.101 to 0.15; with T-cell [4] it was 1.01 to 1.3; with T-cell [5], 0.601 to 0.8. In addition, the fold induction at 4 µM in the experiment on T-cell [2] lay within 5 to 7.5; with T-cell [4], 1.01 to 1.3. Further, the fold induction at 8 µM was greater than 0.201 in the experiment on T-cell [3] and 0.801 to 1 in the experiment on T-cell [5].

For `Cn1cnnc1CC1(c2cccc(NC(=O)c3ccnc(C(F)(F)F)n3)c2)COC1` [Compound 337, N-(3-(3-((4-methyl-4H-1,2,4-triazol-3-yl)methyl)oxetan-3-yl)phenyl)-2-(trifluoromethyl)pyrimidine-4-carboxamide], the results for the IC50 at Cbl-b [1] and on Cbl-b [6] were no more than 300 nM and 100 to 300 nM, respectively. Besides, the fold induction at 0.3 µM in the experiment on T-cell [2] was 1.01 to 2.5; in the experiment on T-cell [4], 1.01 to 1.3. Further, the fold induction at 1 µM in the experiment with T-cell [2] lay within 2.51 to 5; in the experiment on T-cell [3], 0.051 to 0.1; in the experiment with T-cell [4] it was 1.01 to 1.3; in the experiment with T-cell [5], 0.601 to 0.8. Moreover, the fold induction at 4 µM in the experiment with T-cell [2] was in the range of 2.51 to 5; with T-cell [4], 1.01 to 1.3. The fold induction at 8 µM is 0.151 to 0.2 in the experiment with T-cell [3] and greater than 1 with T-cell [5].

For `Cc1cc(C(=O)Nc2cccc(C3(Cc4nncn4C)COC3)c2)nc(C(F)(F)F)n1` [Compound 338, 6-methyl-N-(3-(3-((4-methyl-4H-1,2,4-triazol-3-yl)methyl)oxetan-3-yl)phenyl)-2-(trifluoromethyl)pyrimidine-4-carboxamide], the figures for the IC50 on Cbl-b [1] and at Cbl-b [6] were no more than 100 nM and less than 100 nM, respectively. Also, the fold induction at 0.3 µM fell in the range of 1.01 to 2.5 in the experiment with T-cell [2] and 1.01 to 1.3 in the experiment on T-cell [4]. For the same compound, the fold induction at 1 µM with T-cell [2] fell in the range of 2.51 to 5; in the experiment on T-cell [3] it was 0.101 to 0.15; in the experiment with T-cell [4] it was 1.01 to 1.3; in the experiment on T-cell [5] it was 0.801 to 1. For the same compound, the values for the fold induction at 4 µM with T-cell [2] and in the experiment with T-cell [4] were greater than 7.5 and 1.01 to 1.3, respectively. The fold induction at 8 µM with T-cell [3] is greater than 0.201; in the experiment with T-cell [5], greater than 1.

On to `Cc1cc(C(=O)Nc2cccc(C3(Cc4nncn4C)COC3)c2)nc(C2CC2)c1` [Compound 339, 6-cyclopropyl-4-methyl-N-(3-(3-((4-methyl-4H-1,2,4-triazol-3-yl)methyl)oxetan-3-yl)phenyl)picolinamide], for which the IC50 is no more than 100 nM on Cbl-b [1] and less than 100 nM on Cbl-b [6]. For the same compound, the fold induction at 0.3 µM lay in the range of 5 to 7.5 with T-cell [2] and 1.31 to 1.5 with T-cell [4]. The fold induction at 1 µM with T-cell [2] is greater than 7.5; in the experiment on T-cell [3] it was greater than 0.201; with T-cell [4], 1.31 to 1.5; in the experiment with T-cell [5], greater than 1. The fold induction at 4 µM in the experiment on T-cell [2] is greater than 7.5; in the experiment with T-cell [4] it was 1.51 to 1.75. The fold induction at 8 µM is greater than 0.201 in the experiment with T-cell [3] and greater than 1 in the experiment with T-cell [5].

On to `Cc1cc(C(=O)Nc2cccc(C3(Cc4nncn4C)COC3)c2)nc(C2CCC2)n1` [Compound 340, 2-cyclobutyl-6-methyl-N-(3-(3-((4-methyl-4H-1,2,4-triazol-3-yl)methyl)oxetan-3-yl)phenyl)pyrimidine-4-carboxamide], for which the IC50 was no more than 100 nM on Cbl-b [1] and less than 100 nM at Cbl-b [6]. Further, the fold induction at 0.3 µM in the experiment with T-cell [2] lay within 1.01 to 2.5; with T-cell [4], 1.01 to 1.3. The fold induction at 1 µM in the experiment with T-cell [2] was 5 to 7.5; with T-cell [3] it was 0.151 to 0.2; in the experiment on T-cell [4], 1.01 to 1.3; with T-cell [5], 0.801 to 1. The fold induction at 4 µM in the experiment on T-cell [2] is greater than 7.5; in the experiment on T-cell [4] it was 1.31 to 1.5. For the same compound, the fold induction at 8 µM in the experiment on T-cell [3] was greater than 0.201; in the experiment on T-cell [5] it was greater than 1.

Consider `Cn1cnnc1CC1(c2cccc(NC(=O)c3cc(C4CC4)nc(C(F)(F)F)n3)c2)COC1` [Compound 341, 6-cyclopropyl-N-(3-(3-((4-methyl-4H-1,2,4-triazol-3-yl)methyl)oxetan-3-yl)phenyl)-2-(trifluoromethyl)pyrimidine-4-carboxamide], for which the IC50 at Cbl-b [1] is no more than 100 nM; at Cbl-b [6], less than 100 nM. The fold induction at 0.3 µM with T-cell [2] fell in the range of 2.51 to 5; in the experiment on T-cell [4], 1.01 to 1.3. Also, the fold induction at 1 µM was greater than 7.5 in the experiment on T-cell [2], 0.151 to 0.2 in the experiment on T-cell [3], 1.31 to 1.5 with T-cell [4] and 0.801 to 1 in the experiment on T-cell [5]. Moreover, the fold induction at 4 µM in the experiment on T-cell [2] is greater than 7.5; with T-cell [4], 1.51 to 1.75. For the same compound, the fold induction at 8 µM in the experiment on T-cell [3] was greater than 0.201; in the experiment with T-cell [5] it was greater than 1.

`COc1cc(C(=O)Nc2cccc(C3(Cc4nncn4C)COC3)c2)nc(C2CC2)n1` [Compound 342, 2-cyclopropyl-6-methoxy-N-(3-(3-((4-methyl-4H-1,2,4-triazol-3-yl)methyl)oxetan-3-yl)phenyl)pyrimidine-4-carboxamide]: the IC50 on Cbl-b [1] was no more than 100 nM; on Cbl-b [6] it was less than 100 nM. The fold induction at 0.3 µM was 5 to 7.5 in the experiment with T-cell [2] and 1.01 to 1.3 with T-cell [4]. Moreover, the fold induction at 1 µM in the experiment on T-cell [2] is greater than 7.5; with T-cell [3], 0.151 to 0.2; in the experiment with T-cell [4], 1.31 to 1.5; in the experiment on T-cell [5], greater than 1.

Turning to `Cn1cnnc1CC1(c2cccc(NC(=O)c3[nH]nc4c3OCCC4)c2)COC1` [Compound 343, N-(3-(3-((4-Methyl-4H-1,2,4-triazol-3-yl)methyl)oxetan-3-yl)phenyl)-2,5,6,7-tetrahydropyrano[3,2-c]pyrazole-3-carboxamide], the IC50 on Cbl-b [1] was no more than 100 nM; at Cbl-b [6] it was less than 100 nM. In addition, the figures for the fold induction at 0.3 µM in the experiment with T-cell [2] and in the experiment on T-cell [4] were 1.01 to 2.5 and 1.01 to 1.3, respectively. Besides, the fold induction at 1 µM with T-cell [2] was 1.01 to 2.5; in the experiment on T-cell [3] it was 0.051 to 0.1; with T-cell [4], 1.01 to 1.3; in the experiment on T-cell [5], 0.601 to 0.8.

Regarding `Cn1cnnc1C(F)(F)[C@](C)(F)c1cccc(NC(=O)c2nc3c(C(F)(F)F)cccc3[nH]2)c1` [Compound 345, (R)-N-(3-(1,1,2-trifluoro-1-(4-methyl-4H-1,2,4-triazol-3-yl)propan-2-yl)phenyl)-4-(trifluoromethyl)-1H-benzo[d]imidazole-2-carboxamide], the values for the IC50 on Cbl-b [1] and on Cbl-b [6] were no more than 300 nM and 100 to 300 nM, respectively. Also, the fold induction at 0.3 µM is 1.01 to 2.5 with T-cell [2] and 1.01 to 1.3 in the experiment with T-cell [4]. Moreover, the fold induction at 1 µM in the experiment on T-cell [2] was in the range of 1.01 to 2.5; in the experiment on T-cell [3] it was 0.051 to 0.1; in the experiment on T-cell [4], 1.01 to 1.3; in the experiment on T-cell [5], 0.601 to 0.8. For the same compound, the results for the fold induction at 4 µM in the experiment with T-cell [2] and in the experiment with T-cell [4] were 2.51 to 5 and 1.01 to 1.3, respectively. Further, the results for the fold induction at 8 µM in the experiment with T-cell [3] and with T-cell [5] were 0.151 to 0.2 and 0.601 to 0.8, respectively.
